Among the data in US10351530B2, “Arylcyclohexyl pyrazoles as NRF2 regulators” (GlaxoSmithKline Intellectual Property Development Limited, priority 2015, dated 2019) are IC50 and EC50 values, retold here.

In general, IC50 refers to the midpoint of a concentration-inhibition curve. For orientation: EC50 means the concentration that produces a half-maximal response. Read a high EC50 as weaker potency.

The target in test [1] is T1, NRF2/Keap1 (Homo sapiens, UniProt Q14145).
T1 construct: full length NRF2 protein and full length Keap1 protein (Keap1 exists a dimer) are used
T1 sequence (Q14145 whole entry): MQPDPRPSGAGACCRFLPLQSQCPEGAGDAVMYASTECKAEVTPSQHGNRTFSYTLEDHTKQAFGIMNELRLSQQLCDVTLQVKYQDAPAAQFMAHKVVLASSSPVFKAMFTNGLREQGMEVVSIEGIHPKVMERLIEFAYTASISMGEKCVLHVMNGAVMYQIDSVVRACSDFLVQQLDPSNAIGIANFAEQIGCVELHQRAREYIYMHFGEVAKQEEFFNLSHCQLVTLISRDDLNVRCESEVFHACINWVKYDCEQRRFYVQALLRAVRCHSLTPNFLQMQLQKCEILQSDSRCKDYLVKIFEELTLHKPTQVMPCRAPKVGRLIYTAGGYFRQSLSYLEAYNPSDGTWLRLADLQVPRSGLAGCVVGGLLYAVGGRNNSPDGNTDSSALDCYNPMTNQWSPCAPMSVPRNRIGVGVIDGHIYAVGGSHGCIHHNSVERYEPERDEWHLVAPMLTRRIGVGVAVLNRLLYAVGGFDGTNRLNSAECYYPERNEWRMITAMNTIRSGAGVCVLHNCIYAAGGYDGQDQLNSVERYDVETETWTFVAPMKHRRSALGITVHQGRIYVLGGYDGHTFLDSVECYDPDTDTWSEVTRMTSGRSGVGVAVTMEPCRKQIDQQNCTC
In words: NRF2-Keap1 TR-FRET Low Protein Assay (full length NRF2 and full length Keap1). The class given is binding. Particulars: low protein: 1.25 nM Keap1 FlagHis, 2.5 nM biotin-NRF2 added. The text has this: In the NRF2-Keap1 TR-FRET (time-resolved fluorescence resonance energy transfer) low protein assay, full length NRF2 protein and full length Keap1 protein (Keap1 exists a dimer) are used. The assay detects a compound's ability to displace the binding of Keap1 FlagHis with biotinylated Avi-NRF2 protein. Biotin-NRF2 binds to streptavidin-europium (a component of the detection mix) and Keap1 FlagHis is recognized by anti-Flag APC (allophycocyanin) antibody (also a component of the detection mix). If binding occurs between the two proteins, there will be an energy transfer from the Eu+3 (donor) at 615 nm to the APC (acceptor) at 665 nm. A potential NRF2 inhibitor will cause a reduction in the TR-FRET signal by interfering with the binding of Keap1 to NRF2.
Ten nanoliters of 100× compound dose response curves (serial 3-fold dilutions) in DMSO are stamped using an Echo liquid handling system (Labcyte) into 384-well, low volume, black assay plates (Greiner, #784076), with DMSO in columns 6 and 18. An additional 90 nl DMSO is added to each well, to bring the total volume to 100 nl per well. The top concentration of compound is located in columns 1 and 13, with the serial dilutions going across the row. All reagents are diluted in assay buffer (50 mM Tris, pH 8.0, 5 mM MgCl2, 100 mM NaCl, 0.005% BSA, 1 mM DTT, and 2 mM CHAPS. The BSA, DTT, and CHAPS are added to the assay buffer on the day of assay. Using a Multidrop Combi (Thermo Electron Corporation) equipped with a metal tip dispenser, 5 ul of 1.25 nM Keap1 FlagHis protein is added to all wells of the compound plate, with the exception of the wells in column 18. Wells in column 18 receive 5 ul of assay buffer instead. Plates are centrifuged at 500 rpm for 1 minute, covered with a plate lid, and incubated at 37° C. for 2.25 hours. Plates are then removed from the incubator and allowed to cool to RT for 15 minutes. Five microliters of 2.5 nM biotin-NRF2 protein is then added to all wells of the plates and the plates are spun at 500 rpm for 1 minute, followed by incubating at 4° C. for 1.25 hours. The plates are then allowed to warm to RT for 15 minutes, followed by the addition of 10 ul of detection mix (1 nM Streptavidin Eu+ W1024 and 5 ug/ml mouse anti-DYKDDDDK IgG conjugated to SureLight APC antibody; both from Columbia Biosciences) to all wells. Plates are spun at 500 rpm for 1 minute, incubated for 1 hour at RT, and read on an Envision plate reader using a 320 nm excitation filter and 615 nm and 665 nm emission filters. Compound response (% inhibition) and potency (pIC50) are calculated based on the ratio of the two emissions (665 nm/615 nm) and then the transformed data is normalized against controls in the assay (control 1=1% DMSO in the presence of NRF2 and Keap1 protein and control 2=1% DMSO in the presence of only the NRF2 protein). Data analysis is handled using the software package Abase XE (Surrey, United Kingdom). The % inhibition values are calculated from the ratio (transformed) data by the equation: 100−(100*(compound response-average control 2)/(average control 1−average control 2)). For calculation of pIC50s, Abase XE uses a four parameter equation.
(TR-FRET usually uses a lanthanide donor and a delayed reading to cut background.)

For test [2], the system named is NQO1 specific enzyme activity in BEAS-2B cells. In words: BEAS-2B NQO1 MTT Assay. It counts as cell-based. Particulars: Homo sapiens, BEAS-2B, 48 h, NQO1 specific activity induction. A digest of the protocol:
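BEAS-2B cells exposed to compound for 48 h at 37 °C, 5% CO2, then lysed. NQO1 activity in crude lysate read kinetically by MTT cocktail absorbance at 570 nm over 30 min. pEC50 from ΔOD/min versus log concentration, 3-parameter fit.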

In test [3] the target is T2, Keap1/NRF2 (Homo sapiens, UniProt Q14145).
T2 construct: Keap1 (321-609) is diluted to 40 nM (2×) in 1× assay buffer
T2 sequence (Q14145 321-609): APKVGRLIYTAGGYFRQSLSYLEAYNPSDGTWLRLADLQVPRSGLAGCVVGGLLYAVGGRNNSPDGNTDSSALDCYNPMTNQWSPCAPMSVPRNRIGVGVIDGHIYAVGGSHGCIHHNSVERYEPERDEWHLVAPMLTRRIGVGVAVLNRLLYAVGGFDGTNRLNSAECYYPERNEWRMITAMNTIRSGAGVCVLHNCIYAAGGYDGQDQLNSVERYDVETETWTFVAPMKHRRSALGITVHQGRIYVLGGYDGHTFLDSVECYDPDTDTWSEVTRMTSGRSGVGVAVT
In words: NRF2-Keap1 FP Assay (Kelch domain (321-609) of Keap1, TAMRA-labeled NRF2 ETGE peptide). The class given is binding. The note with it: Keap1 (321-609) 20 nM, Tamra labeled peptide 8 nM. A digest of the protocol: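 Fluorescence polarization competition: Keap1 Kelch (321-609) at 20 nM final and TAMRA-ETGE 16-mer peptide at 8 nM final with 3-fold compound dilutions, 1 h room temperature in Tris pH 8.0 buffer (NaCl, MgCl2, DTT, CHAPS, BSA). mP normalized to protein+peptide and peptide-alone controls; pIC50 by four-parameter fit.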

SMILES strings stand for the structures.

With `Cn1cc([C@@H]2C[C@H]2c2c(C(=O)O)cnn2-c2cccc(N3CCCC(CCC4CCCCC4)C3)c2)nn1` (stereo partly drawn) [Example 35, 1-(3-(3-(2-cyclohexylethyl)piperidin-1-yl)phenyl)-5-((1R,2R)-2-(1-methyl-1H-1,2,3-triazol-4-yl)cyclopropyl)-1H-pyrazole-4-carboxylic Acid], the half-inhibitory concentration (IC50) in test [1] and in test [3] was 10 to 100 nM each time. In addition, in test [2], the EC50 is 1 to 10 nM.

With `Cn1cc([C@@H]2C[C@H]2c2c(C(=O)O)cnn2-c2cccc(N3CCC[C@H](CCC4CCCCC4)C3)c2)nn1` [Example 36c, 1-(3-((S)-3-(2-Cyclohexylethyl)piperidin-1-yl)phenyl)-5-((1R,2R)-2-(1-methyl-1H-1,2,3-triazol-4-yl)cyclopropyl)-1H-pyrazole-4-carboxylic Acid], the IC50 in test [1] and in test [3] was 10 to 100 nM throughout. Further, in test [2], the 50% effective concentration (EC50) lay in the range of 10 to 100 nM.

With `Cn1cc([C@@H]2C[C@H]2c2c(C(=O)O)cnn2-c2cccc(N3CCC[C@@H](CCC4CCCCC4)C3)c2)nn1` [Example 36d, 1-(3-((R)-3-(2-cyclohexylethyl)piperidin-1-yl)phenyl)-5-((1R,2R)-2-(1-methyl-1H-1,2,3-triazol-4-yl)cyclopropyl)-1H-pyrazole-4-carboxylic Acid], the IC50 in test [1] and in test [3] was 10 to 100 nM throughout. For the same compound, in test [2], the EC50 fell in the range of 1 to 10 nM.

As to `Cn1cc([C@@H]2C[C@H]2c2c(C(=O)O)cnn2-c2cccc(N3CCC[C@@H](OCC4CCCCC4)C3)c2)nn1` [Example 43, 1-(3-((R)-3-(Cyclohexylmethoxy)piperidin-1-yl)phenyl)-5-((1R,2R)-2-(1-methyl-1H-1,2,3-triazol-4-yl)cyclopropyl)-1H-pyrazole-4-carboxylic Acid], the IC50 was in the range of 10 to 100 nM in test [1] and 100 to 1000 nM in test [3]. The same compound showed an EC50 in test [2] of 100 to 1000 nM.
